Molecular target: human APJ receptor (Homo sapiens (Human), UniProt P35414)
Assay: Intracellular cAMP accumulation assay (APJ hcAMP, HTRF)
Format: cell-based
Conditions: HEK293 cells stably expressing human APJ receptor; inhibition of forskolin-mediated cAMP production; read-out: Human APJ cAMP EC50 Potency range
Summary of the method: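 HEK293 cells stably expressing human APJ, 5,000 per well, incubated 30 min at rt with compound, […] and 2 μM forskolin. cAMP measured by HTRF against a cAMP standard curve as inhibition of forskolin-driven production. EC50 from variable-slope sigmoidal fit.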

human APJ receptor, sequence (P35414 whole entry): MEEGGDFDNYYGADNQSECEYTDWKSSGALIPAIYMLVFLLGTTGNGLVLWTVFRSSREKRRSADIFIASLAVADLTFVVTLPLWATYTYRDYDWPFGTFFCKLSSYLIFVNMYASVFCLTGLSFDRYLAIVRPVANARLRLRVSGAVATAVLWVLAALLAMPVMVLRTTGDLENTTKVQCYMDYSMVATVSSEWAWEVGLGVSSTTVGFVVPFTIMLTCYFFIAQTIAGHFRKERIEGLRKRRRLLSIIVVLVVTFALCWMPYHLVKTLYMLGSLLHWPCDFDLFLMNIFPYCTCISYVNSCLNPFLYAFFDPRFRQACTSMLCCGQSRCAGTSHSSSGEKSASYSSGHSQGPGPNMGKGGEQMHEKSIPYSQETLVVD

EC50, 0.01 to 10 nM:
COC[C@@H](c1ccccc1)n1c(COC(C)C)nc(=O)c(S(=O)(=O)c2ccc(-c3cnccc3C#N)cc2)c1O [Example 413, 3-[4-({6-hydroxy-1-[(1R)-2-methoxy-1-phenylethyl]-4-oxo-2-[(propan-2-yloxy)methyl]-1,4-dihydropyrimidin-5-yl}sulfonyl)phenyl] pyridine-4-carbonitrile]
CC(C)OCc1nc(=O)c(S(=O)(=O)c2ccc(-c3cnccc3C#N)cc2)c(O)n1[C@H](c1cccc(C#N)c1)C1CC1 [Example 414, 3-[4-({1-[(S)-(3-cyanophenyl)(cyclopropyl)methyl]-6-hydroxy-4-oxo-2-[(propan-2-yloxy)methyl]-1,4-dihydropyrimidin-5-yl}sulfonyl)phenyl] pyridine-4-carbonitrile]
Cc1cnccc1-c1ccc(S(=O)(=O)c2c(O)n([C@H](c3cccc(C#N)c3)C3CC3)c(COC(C)C)nc2=O)cc1 [Example 415, 3-[(S)-cyclopropyl({6-hydroxy-5-[4-(3-methylpyridin-4-yl)benzenesulfonyl]-4-oxo-2-[(propan-2-yloxy)methyl]-1,4-dihydropyrimidin-1-yl})methyl]benzonitrile]
CC(C)OCc1nc(=O)c(S(=O)(=O)c2ccc(-c3ccncc3C#N)cc2)c(O)n1[C@H](c1cccc(C#N)c1)C1CC1 [Example 416, 4-[4-({1-[(S)-(3-cyanophenyl)(cyclopropyl)methyl]-6-hydroxy-4-oxo-2-[(propan-2-yloxy)methyl]-1,4-dihydropyrimidin-5-yl}sulfonyl)phenyl]pyridine-3-carbonitrile]
CC(C)OCc1nc(=O)c(S(=O)(=O)c2ccc(-c3ccc(F)cc3C(N)=O)cc2)c(O)n1[C@H](c1cccc(C#N)c1)C1CC1 [Example 417, 4′-({1-[(S)-(3-cyanophenyl)(cyclopropyl)methyl]-6-hydroxy-4-oxo-2-[(propan-2-yloxy)methyl]-1,4-dihydropyrimidin-5-yl}sulfonyl)-4-fluoro-[1,1′-biphenyl]-2-carboxamide]
CC(C)OCc1nc(=O)c(S(=O)(=O)c2ccc(-c3ccccc3C(N)=O)cc2)c(O)n1[C@H](c1cccc(C#N)c1)C1CC1 [Example 418, 4′-({1-[(S)-(3-cyanophenyl)(cyclopropyl)methyl]-6-hydroxy-4-oxo-2-[(propan-2-yloxy)methyl]-1,4-dihydropyrimidin-5-yl}sulfonyl)-[1,1′-biphenyl]-2-carboxamide]
Cc1c(-c2ccc(S(=O)(=O)c3c(O)n([C@H](c4cccc(C#N)c4)C4CC4)c(COC(C)C)nc3=O)cc2)ccnc1F [Example 419, 3-[(S)-cyclopropyl({5-[4-(2-fluoro-3-methylpyridin-4-yl)benzenesulfonyl]-6-hydroxy-4-oxo-2-[(propan-2-yloxy)methyl]-1,4-dihydropyrimidin-1-yl})methyl]benzonitrile]
CNC(=O)c1ccccc1-c1ccc(S(=O)(=O)c2c(O)n([C@H](c3cccc(C#N)c3)C3CC3)c(COC(C)C)nc2=O)cc1 [Example 420, 4′-({1-[(S)-(3-cyanophenyl)(cyclopropyl)methyl]-6-hydroxy-4-oxo-2-[(propan-2-yloxy)methyl]-1,4-dihydropyrinudin-5-yl}sulfonyl)-N-methyl-[1,1′-biphenyl]-2-carboxamide]
CCOCc1nc(=O)c(S(=O)(=O)c2ccc(-c3ccccc3C(=O)NC)cc2)c(O)n1[C@H]1CCc2ccccc21 [Example 421, 4′-({1-[(1S)-2,3-dihydro-1H-inden-1-yl]-2-(ethoxymethyl)-6-hydroxy-4-oxo-1,4-dihydropyrimidin-5-yl}sulfonyl)-N-methy1-[1,1′-biphenyl]-2-carboxamide]
CC[C@@H](c1ccccc1)n1c(COC(C)C)nc(=O)c(S(=O)(=O)c2ccc(-c3ccccc3C(=O)NC)cc2)c1O [Example 422, 4′-({6-hydroxy-4-oxo-1-[(1S)-1-phenylpropyl]-2-[(propan-2-yloxy)methyl]-1,4-dihydropyrimidin-5-yl}sulfonyl)-N-methy1-[1,1′-biphenyl]-2-carboxamide]
CCCCc1nc(=O)c(S(=O)(=O)c2ccc(-c3ccncc3C)cc2)c(O)n1[C@@H](CC)c1ccc(F)cc1 [Example 423, 2-butyl-1-[(1S)-1-(4-fluorophenyl)propyl]-6-hydroxy-5-[4-(3-methylpyridin-4-yl)benzenesulfonyl]-1,4-dihydropyrimidin-4-one]
CCCCc1nc(=O)c(S(=O)(=O)c2ccc(-c3ccnc(F)c3C)cc2)c(O)n1[C@@H](CC)c1ccc(F)cc1 [Example 424, 2-butyl-5-[4-(2-fluoro-3-methylpyridin-4-yl)benzenesulfonyl]-1-[(1S)-1-(4-fluorophenyl)propyl]-6-hydroxy-1,4-dihydropyrimidin-4-one]
CCCCc1nc(=O)c(S(=O)(=O)c2ccc(-c3cccnc3C)cc2)c(O)n1[C@@H](CC)c1ccc(F)cc1 [Example 425, 2-butyl-1-[(1S)-1-(4-fluorophenyl)propyl]-6-hydroxy-5-[4-(2-methylpyridin-3-yl)benzenesulfonyl]-1,4-dihydropyrimidin-4-one]
CCCCc1nc(=O)c(S(=O)(=O)c2ccc(-c3ccc(F)nc3C)cc2)c(O)n1[C@@H](CC)c1ccc(F)cc1 [Example 426, 2-butyl-5-[4-(6-fluoro-2-methylpyridin-3-yl)benzenesulfonyl]-1-[(1S)-1-(4-fluorophenyl)propyl]-6-hydroxy-1,4-dihydropyrimidin-4-one]
CCCCc1nc(=O)c(S(=O)(=O)c2ccc(-c3ccncc3C)cc2)c(O)n1[C@@H](CC)c1cc(F)cc(F)c1 [Example 427, 2-butyl-1-[(1S)-1-(3,5-difluorophenyl)propyl]-6-hydroxy-5-[4-(3-methylpyridin-4-yl)benzenesulfonyl]-1,4-dihydropyrimidin-4-one]
CCCCc1nc(=O)c(S(=O)(=O)c2ccc(-c3cccnc3C)cc2)c(O)n1[C@@H](CC)c1ccccc1F [Example 430, 2-butyl-1-[(1S)-1-(2-fluorophenyl)propyl]-6-hydroxy-5-[4-(2-methylpyridin-3-yl)benzenesulfonyl]-1,4-dihydropyrimidin-4-one]
CCCCc1nc(=O)c(S(=O)(=O)c2ccc(-c3ccc(F)nc3C)cc2)c(O)n1[C@@H](CC)c1ccccc1F [Example 431, 2-butyl-5-[4-(6-fluoro-2-methylpyridin-3-yl)benzenesulfonyl]-1-[(1S)-1-(2-fluorophenyl)propyl]-6-hydroxy-1,4-dihydropyrimidin-4-one]
CCCCc1nc(=O)c(S(=O)(=O)c2ccc(-c3ccnc(F)c3C)cc2)c(O)n1[C@@H](CC)c1ccccc1F [Example 432, 2-butyl-5-[4-(2-fluoro-3-methylpyridin-4-yl)benzenesulfonyl]-1-[(1S)-1-(2-fluorophenyl)propyl]-6-hydroxy-1,4-dihydropyrimidin-4-one]
CCCCc1nc(=O)c(S(=O)(=O)c2ccc(-c3ccc(F)nc3C)cc2)c(O)n1[C@@H](CC)c1cc(F)cc(F)c1 [Example 433, 2-butyl-1-[(1S)-1-(3,5-difluorophenyl)propyl]-5-[4-(6-fluoro-2-methylpyridin-3-yl)benzenesulfonyl]-6-hydroxy-1,4-dihydropyrimidin-4-one]

Source: patent publication US10508104B2, “6-hydroxy-5-(phenyl/heteroarylsulfonyl)pyrimidin-4(1H)-one as APJ agonists” (Bristol-Myers Squibb Company, priority 2016, dated 2019)
